# Reference: ChEMBL document CHEMBL6078687 (J Med Chem, 2024)
# How the values were obtained:
# [1] = Inhibition of neuraminidase in Influenza A virus A/Goose/Guangdong/SH7/2013 H5N1 using MUNANA as substrate incubated for 40 mins by […] based assay
# [2] = Inhibition of neuraminidase in Influenza A virus A/Babol/36/2005 H3N2 using MUNANA as substrate incubated for 40 mins by […] based assay
# [3] = Cytotoxicity against CEF cells incubated for 48 hrs by CCK8 assay; type: toxicity, cell-based, Gallus gallus; conditions: chicken
# Influenza A virus [4] = assay: microbe, parasite or virus in culture; conditions: A/PR/8/34 H1N1, MDCK, 48 h
# Influenza A virus [5] = assay: microbe, parasite or virus in culture; conditions: A/Goose/Jiangsu/1306/2014 H5N8, CEF, 48 h
# Influenza A virus [6] = assay: Antiviral activity against Influenza A virus A/WSN/67/05 H3N2 infected in MDCK cells assessed as inhibition of plaque formation measured after 2 days; conditions: A/WSN/67/05 H3N2, MDCK, 48 h
# Influenza A virus [7] = assay: microbe, parasite or virus in culture; conditions: A/Goose/Guangdong/SH7/2013 H5N1, CEF, 48 h
# [8] = Cytotoxicity against MDCK cells incubated for 48 hrs by MTT assay; type: toxicity, cell-based, Canis lupus familiaris; conditions: dog
# in vitro [9] = conditions: human, liver microsomes
# in vitro [10] = conditions: human, liver microsomes; remark: listed apart in the source
# [11] = Metabolic stability in human liver microsomes assessed as compound remaining incubated for 60 mins by LC-MS/MS analysis; type: ADME, Microsome; conditions: 1 h
# in vitro [12] = conditions: human, liver microsomes; remark: listed apart in the source
SMILES,IC50 [1] [nM],IC50 [2] [nM],further results
CCC(CC)O[C@@H]1C=C(C(=O)O)C[C@H](NCc2ccc(-c3cccs3)cc2OC)[C@H]1NC(C)=O,1650,2100,–
CCC(CC)O[C@@H]1C=C(C(=O)O)C[C@H](NCc2ccc(-c3ccsc3)cc2OC)[C@H]1NC(C)=O,1500,8460,–
CCC(CC)O[C@@H]1C=C(C(=O)O)C[C@H](NCc2ccc(OCc3cccc(B(O)O)c3)cc2F)[C@H]1NC(C)=O,38,1430,CC50 at 48 h [3]: 170000 nM; EC50 (Influenza A virus [4]): 26 nM; EC50 (Influenza A virus [5]): 6880 nM; EC50 (Influenza A virus [6]): > 100000 nM; EC50 (Influenza A virus [7]): 6270 nM; EC50 at 48 h [8]: > 250000 nM
CCC(CC)O[C@@H]1C=C(C(=O)O)C[C@H](NCc2cccc(C(=O)Nc3ccc(B(O)O)cc3)c2)[C@H]1NC(C)=O,1050,6660,–
CCC(CC)O[C@@H]1C=C(C(=O)O)C[C@H](NCc2ccc(OCc3ccc(B(O)O)cc3)c(OC)c2)[C@H]1NC(C)=O,51800,28600,–
CCC(CC)O[C@@H]1C=C(C(=O)O)C[C@H](NCc2ccc(OCc3cccc(B(O)O)c3)c(C)c2)[C@H]1NC(C)=O,8090,11500,–
CCC(CC)O[C@@H]1C=C(C(=O)O)C[C@H](NCc2ccc(OCc3ccc(B(O)O)cc3)c(Cl)c2)[C@H]1NC(C)=O,3950,7170,–
CCC(CC)O[C@@H]1C=C(C(=O)O)C[C@H](NCc2ccc(C(=O)Nc3ccc(B(O)O)cc3)cc2)[C@H]1NC(C)=O,970,1640,–
CCC(CC)O[C@@H]1C=C(C(=O)O)C[C@H](NCc2ccc(OCc3cccc(B(O)O)c3)c(B(O)O)c2)[C@H]1NC(C)=O,75,1780,–
CCC(CC)O[C@@H]1C=C(C(=O)O)C[C@H](NCc2ccc(Oc3ccc(B(O)O)cc3)cc2)[C@H]1NC(C)=O,36,1450,–
CCC(CC)O[C@@H]1C=C(C(=O)O)C[C@H](NCc2ccc(OCc3ccc(B(O)O)cc3)cc2Cl)[C@H]1NC(C)=O,22,120,CC50 at 48 h [3]: > 200000 nM; EC50 (Influenza A virus [4]): 30 nM; EC50 (Influenza A virus [5]): > 40000 nM; EC50 (Influenza A virus [6]): 4230 nM; EC50 (Influenza A virus [7]): 3570 nM; EC50 at 48 h [8]: > 250000 nM
CCC(CC)O[C@@H]1C=C(C(=O)O)C[C@H](NCc2c(C)cc(OCc3ccc(B(O)O)cc3)cc2C)[C@H]1NC(C)=O,270,740,–
CCC(CC)O[C@@H]1C=C(C(=O)O)C[C@H](NCc2ccccc2OCc2ccc(B(O)O)cc2)[C@H]1NC(C)=O,1290,8480,–
CCC(CC)O[C@@H]1C=C(C(=O)O)C[C@H](NCc2ccc(OCc3ccc(B(O)O)cc3)cc2F)[C@H]1NC(C)=O,87,400,CC50 at 48 h [3]: > 500000 nM; EC50 (Influenza A virus [4]): 29 nM; EC50 (Influenza A virus [5]): 3970 nM; EC50 (Influenza A virus [6]): 18500 nM; EC50 (Influenza A virus [7]): 1590 nM; EC50 at 48 h [8]: > 250000 nM
CCC(CC)O[C@@H]1C=C(C(=O)O)C[C@H](NCc2c(C)cc(OCc3cccc(B(O)O)c3)cc2C)[C@H]1NC(C)=O,24,650,CC50 at 48 h [3]: > 200000 nM; EC50 (Influenza A virus [4]): 14 nM; EC50 (Influenza A virus [5]): 9120 nM; EC50 (Influenza A virus [6]): > 100000 nM; EC50 (Influenza A virus [7]): 2540 nM; EC50 at 48 h [8]: > 250000 nM
CCC(CC)O[C@@H]1C=C(C(=O)O)C[C@H](NCc2ccc(OCc3ccc(B(O)O)cc3)c(C)c2)[C@H]1NC(C)=O,8060,16700,–
CCC(CC)O[C@@H]1C=C(C(=O)O)C[C@H](NCc2cccc(OCc3cccc(B(O)O)c3)c2)[C@H]1NC(C)=O,4910,4370,–
CCC(CC)O[C@@H]1C=C(C(=O)O)C[C@H](NCc2cccc(OCc3ccccc3B(O)O)c2)[C@H]1NC(C)=O,7020,7880,–
CCC(CC)O[C@@H]1C=C(C(=O)O)C[C@H](NCc2ccc(OCc3cccc(B(O)O)c3)c(F)c2)[C@H]1NC(C)=O,73,1830,–
CCC(CC)O[C@@H]1C=C(C(=O)O)C[C@H](NCc2ccc(Oc3cccc(B(O)O)c3)cc2)[C@H]1NC(C)=O,140,760,–
CCC(CC)O[C@@H]1C=C(C(=O)O)C[C@H](NCc2cc(C)c(OCc3cccc(B(O)O)c3)c(C)c2)[C@H]1NC(C)=O,32300,8790,–

SMILES,IC50 [1] [nM],IC50 [2] [nM],further results
CCC(CC)O[C@@H]1C=C(C(=O)O)C[C@H](NCc2ccc(OCc3cccc(B(O)O)c3)c(Cl)c2)[C@H]1NC(C)=O,2780,6660,–
CCC(CC)O[C@@H]1C=C(C(=O)O)C[C@H](NCc2ccc(OCc3ccc(B(O)O)cc3)cc2C)[C@H]1NC(C)=O,74,110,CC50 at 48 h [3]: > 200000 nM; EC50 (Influenza A virus [4]): 11 nM; EC50 (Influenza A virus [5]): 3550 nM; EC50 (Influenza A virus [6]): 10600 nM; EC50 (Influenza A virus [7]): 6390 nM; EC50 at 48 h [8]: > 250000 nM
CCC(CC)O[C@@H]1C=C(C(=O)O)C[C@H](NCc2ccc(OCc3ccc(B(O)O)cc3)cc2OC)[C@H]1NC(C)=O,1750,510,–
CCC(CC)O[C@@H]1C=C(C(=O)O)C[C@H](NCc2ccccc2OCc2cccc(B(O)O)c2)[C@H]1NC(C)=O,1480,5080,–
CCC(CC)O[C@@H]1C=C(C(=O)O)C[C@H](NCc2ccc(OCc3cccc(B(O)O)c3)c(OC)c2)[C@H]1NC(C)=O,43500,23700,–
CCC(CC)O[C@@H]1C=C(C(=O)O)C[C@H](NCc2ccc(C(=O)Nc3cccc(B(O)O)c3)cc2)[C@H]1NC(C)=O,1170,17100,–
CCC(CC)O[C@@H]1C=C(C(=O)O)C[C@H](NCc2ccc(OCc3ccc(B(O)O)cc3)cc2Br)[C@H]1NC(C)=O,71,340,–
CCC(CC)O[C@@H]1C=C(C(=O)O)C[C@H](NCc2cc(C)c(OCc3ccc(B(O)O)cc3)c(C)c2)[C@H]1NC(C)=O,19000,41800,–
CCC(CC)O[C@@H]1C=C(C(=O)O)C[C@H](NCc2ccc(OCc3ccc(B(O)O)cc3)c(Br)c2)[C@H]1NC(C)=O,933000,17100,–
CCC(CC)O[C@@H]1C=C(C(=O)O)C[C@H](NCc2ccc(OCc3cccc(B(O)O)c3)cc2Br)[C@H]1NC(C)=O,81,470,–
CCC(CC)O[C@@H]1C=C(C(=O)O)C[C@H](NCc2ccc(OCc3ccc(B(O)O)cc3)c(F)c2)[C@H]1NC(C)=O,100,650,–
CCC(CC)O[C@@H]1C=C(C(=O)O)C[C@H](NCc2ccc(OCc3cccc(B(O)O)c3)cc2OC)[C@H]1NC(C)=O,790,950,–
CCC(CC)O[C@@H]1C=C(C(=O)O)C[C@H](NCc2cccc(OCc3ccc(B(O)O)cc3)c2)[C@H]1NC(C)=O,1160,3310,–
CCC(CC)O[C@@H]1C=C(C(=O)O)C[C@H](NCc2cccc(C(=O)Nc3cccc(B(O)O)c3)c2)[C@H]1NC(C)=O,410,230,–
CCC(CC)O[C@@H]1C=C(C(=O)O)C[C@H](NCc2ccc(OCc3cccc(B(O)O)c3)c(Br)c2)[C@H]1NC(C)=O,6930,14100,–
O=C(O)Cc1ccccc1Nc1c(Cl)cccc1Cl [DICLOFENAC],–,–,CLint scaled at 2 h (in vitro [9]): 200 mL/min/kg; microsomal CLint at 2 h (in vitro [10]): 222 µL/min/mg
CCC(CC)O[C@@H]1C=C(C(=O)O)C[C@H](N)[C@H]1NC(C)=O [OSELTAMIVIR CARBOXYLATE],61,9,CC50 at 48 h [3]: > 200000 nM; EC50 (Influenza A virus [4]): 56 nM; CLint scaled at 2 h (in vitro [9]): 11.8 mL/min/kg; Stability [11]: 114.6%; EC50 (Influenza A virus [5]): 8640 nM; EC50 (Influenza A virus [6]): 750 nM; EC50 (Influenza A virus [7]): 1790 nM; microsomal CLint at 2 h (in vitro [10]): 13.1 µL/min/mg; EC50 at 48 h [8]: > 250000 nM
CC(C)NCC(O)COc1cccc2ccccc12 (stereo not drawn) [PROPRANOLOL],–,–,remaining at 2 h (in vitro [12]): 0.5%
C[C@]12CC[C@H]3[C@@H](CCC4=CC(=O)CC[C@@]43C)[C@@H]1CC[C@@H]2O [TESTOSTERONE],–,–,remaining at 2 h (in vitro [12]): 4.1%
CC(=O)N[C@H]1[C@H]([C@H](O)[C@H](O)CO)OC(C(=O)O)=C[C@@H]1NC(=N)N [ZANAMIVIR],–,38,–
